System: subjects with moderately to severely active RA who have an inadequate response to methotrexate (MTX)
Assay: Study 1 (add-on to MTX) - Creatinine levels
Assay type: in vivo, human
Procedure: Double-blind, placebo-controlled add on study in subjects with moderately to severely active RA who have an inadequate response to methotrexate (MTX) (oral or parenteral).
595 subjects randomized to one of 6 dose regimens of Compound 1 (dosed as [Compound 1:HCl:3H2O]) (3 dose levels administered either once or twice daily) or placebo on top of each subject's stable dose of MTX.
Compound 1 (dosed as [Compound 1:HCl:3H2O]) is dosed for twelve weeks once daily (q.d.) (50 mg, 100 mg or 200 mg) or twice daily (b.i.d.) (25 mg, 50 mg or 100 mg); or placebo.
At Week 12, the subjects on placebo who have not achieved 20% improvement in swollen joint count (SJC66) and tender joint count (TJC68) are re-randomized automatically to receive Compound 1 (dosed as a [Compound 1:HCl:3H2O]) either at 100 mg q.d. or 50 mg b.i.d. doses in a blinded fashion; subjects on 50 mg q.d. who have not achieved 20% improvement in SJC66 and TJC68 will be assigned to 100 mg q.d. and subjects on 25 mg b.i.d. that have not achieved a 20% improvement in SJC66 and TJC68 will be assigned to 50 mg b.i.d. Subjects who switch treatment at week 12 are handled as if they discontinued at week 12 for the purpose of statistical analysis, whereas subjects in the other groups will maintain their randomized treatment until Week 24.
Creatinine levels determination is available at Quest Diagnostics, Clinical Trials, Quest House, 125-135 Staines Road, Hounslow, Middlesex, TW3 3JB, United Kingdom under Catalogue n# 82565. For Study 3, the data are obtained at BARC Europe, 3B,Industrie Park, Zwijnaarde, B-9052 Ghent, Belgium.
The Enzymatic method is based on the determination of sarcosine after conversion of creatinine with the aid of creatininase, creatinase, and sarcosine oxidase. The liberated hydrogen peroxide reacts with 4-aminophenazone and HTIB to form a quinone imine chromogen. The reaction is catalyzed by peroxidase. The color intensity is directly proportional to concentration of creatinine present and can be measured photometrically.

[1] = 2 × 25 mg b.i.d. (N = 86), week 0
[2] = 2 × 25 mg b.i.d. (N = 86), week 1
[3] = 2 × 25 mg b.i.d. (N = 86), week 2
[4] = 2 × 25 mg b.i.d. (N = 86), week 4
[5] = 2 × 25 mg b.i.d. (N = 86), week 8
[6] = 2 × 25 mg b.i.d. (N = 86), week 12
[7] = 2 × 50 mg b.i.d. (N = 85), week 0
[8] = 2 × 50 mg b.i.d. (N = 85), week 1
[9] = 2 × 50 mg b.i.d. (N = 85), week 2
[10] = 2 × 50 mg b.i.d. (N = 85), week 4
[11] = 2 × 50 mg b.i.d. (N = 85), week 8
[12] = 2 × 50 mg b.i.d. (N = 85), week 12
[13] = 2 × 100 mg b.i.d. (N = 84), week 0
[14] = 2 × 100 mg b.i.d. (N = 84), week 1
[15] = 2 × 100 mg b.i.d. (N = 84), week 2
[16] = 2 × 100 mg b.i.d. (N = 84), week 4
[17] = 2 × 100 mg b.i.d. (N = 84), week 8
[18] = 2 × 100 mg b.i.d. (N = 84), week 12
[19] = continued 50 mg q.d. (N = 63), week 0
[20] = continued 50 mg q.d. (N = 63), week 1
[21] = continued 50 mg q.d. (N = 63), week 2
[22] = continued 50 mg q.d. (N = 63), week 24
[23] = placebo switched to 50 mg b.i.d. at week 12 (N = 15), week 16
[24] = placebo switched to 50 mg b.i.d. at week 12 (N = 15), week 20
[25] = placebo switched to 50 mg b.i.d. at week 12 (N = 15), week 24

**Q.** With `O=C(Nc1nc2cccc(-c3ccc(CN4CCS(=O)(=O)CC4)cc3)n2n1)C1CC1` [Compound 1, cyclopropanecarboxylic acid {5-[4-(1,1-dioxo-thiomorpholin-4-ylmethyl)-phenyl]-[1,2,4]triazolo[1,5-a]pyridin-2-yl}-amide] as the molecule, how does the “Creatinine Mean CFB” value (50 mg q.d. (N = 82), week 0) read?
**A.** 0 µmol/L

**Q.** And the “Creatinine Mean percentage CFB” value (50 mg q.d. (N = 82), week 0)?
**A.** 0%

**Q.** And the “Creatinine Mean CFB” value (50 mg q.d. (N = 82), week 1)?
**A.** 1 µmol/L

**Q.** And the “Creatinine Mean percentage CFB” value (50 mg q.d. (N = 82), week 1)?
**A.** 3%

**Q.** And the “Creatinine Mean CFB” value (50 mg q.d. (N = 82), week 2)?
**A.** 1 µmol/L

**Q.** What about the “Creatinine Mean percentage CFB” value (50 mg q.d. (N = 82), week 2) of the same molecule?
**A.** 2%

**Q.** And the “Creatinine Mean CFB” value (50 mg q.d. (N = 82), week 4)?
**A.** 1 µmol/L

**Q.** What about the “Creatinine Mean percentage CFB” value (50 mg q.d. (N = 82), week 4) of the same molecule?
**A.** 3%

**Q.** What about the “Creatinine Mean CFB” value (50 mg q.d. (N = 82), week 8) of the same molecule?
**A.** 2 µmol/L

**Q.** What about the “Creatinine Mean percentage CFB” value (50 mg q.d. (N = 82), week 8) of the same molecule?
**A.** 4%

**Q.** What about the “Creatinine Mean CFB” value (50 mg q.d. (N = 82), week 12) of the same molecule?
**A.** 2 µmol/L

**Q.** What about the “Creatinine Mean percentage CFB” value (50 mg q.d. (N = 82), week 12) of the same molecule?
**A.** 3%

**Q.** And the “Creatinine Mean CFB” value (100 mg q.d. (N = 85), week 0)?
**A.** 0 µmol/L

**Q.** What about the “Creatinine Mean percentage CFB” value (100 mg q.d. (N = 85), week 0) of the same molecule?
**A.** 0%

**Q.** What about the “Creatinine Mean CFB” value (100 mg q.d. (N = 85), week 1) of the same molecule?
**A.** 2 µmol/L

**Q.** And the “Creatinine Mean percentage CFB” value (100 mg q.d. (N = 85), week 1)?
**A.** 4%

**Q.** And the “Creatinine Mean CFB” value (100 mg q.d. (N = 85), week 2)?
**A.** 3 µmol/L

**Q.** What about the “Creatinine Mean percentage CFB” value (100 mg q.d. (N = 85), week 2) of the same molecule?
**A.** 5%

**Q.** What about the “Creatinine Mean CFB” value (100 mg q.d. (N = 85), week 4) of the same molecule?
**A.** 2 µmol/L

**Q.** And the “Creatinine Mean percentage CFB” value (100 mg q.d. (N = 85), week 4)?
**A.** 4%

**Q.** What about the “Creatinine Mean CFB” value (100 mg q.d. (N = 85), week 8) of the same molecule?
**A.** 2 µmol/L

**Q.** And the “Creatinine Mean percentage CFB” value (100 mg q.d. (N = 85), week 8)?
**A.** 4%

**Q.** What about the “Creatinine Mean CFB” value (100 mg q.d. (N = 85), week 12) of the same molecule?
**A.** 4 µmol/L

**Q.** What about the “Creatinine Mean percentage CFB” value (100 mg q.d. (N = 85), week 12) of the same molecule?
**A.** 7%

**Q.** And the “Creatinine Mean CFB” value (200 mg q.d. (N = 86), week 0)?
**A.** 0 µmol/L

**Q.** And the “Creatinine Mean percentage CFB” value (200 mg q.d. (N = 86), week 0)?
**A.** 0%

**Q.** What about the “Creatinine Mean CFB” value (200 mg q.d. (N = 86), week 1) of the same molecule?
**A.** 3 µmol/L

**Q.** What about the “Creatinine Mean percentage CFB” value (200 mg q.d. (N = 86), week 1) of the same molecule?
**A.** 6%

**Q.** What about the “Creatinine Mean CFB” value (200 mg q.d. (N = 86), week 2) of the same molecule?
**A.** 3 µmol/L

**Q.** And the “Creatinine Mean percentage CFB” value (200 mg q.d. (N = 86), week 2)?
**A.** 6%

**Q.** What about the “Creatinine Mean CFB” value (200 mg q.d. (N = 86), week 4) of the same molecule?
**A.** 4 µmol/L

**Q.** And the “Creatinine Mean percentage CFB” value (200 mg q.d. (N = 86), week 4)?
**A.** 7%

**Q.** And the “Creatinine Mean CFB” value (200 mg q.d. (N = 86), week 8)?
**A.** 4 µmol/L

**Q.** And the “Creatinine Mean percentage CFB” value (200 mg q.d. (N = 86), week 8)?
**A.** 7%

**Q.** What about the “Creatinine Mean CFB” value (200 mg q.d. (N = 86), week 12) of the same molecule?
**A.** 4 µmol/L

**Q.** What about the “Creatinine Mean percentage CFB” value (200 mg q.d. (N = 86), week 12) of the same molecule?
**A.** 8%

**Q.** And the “Creatinine Mean CFB” value [1]?
**A.** 0 µmol/L

**Q.** What about the “Creatinine Mean percentage CFB” value [1] of the same molecule?
**A.** 0%

**Q.** And the “Creatinine Mean CFB” value [2]?
**A.** 1 µmol/L

**Q.** And the “Creatinine Mean percentage CFB” value [2]?
**A.** 2%

**Q.** And the “Creatinine Mean CFB” value [3]?
**A.** 1 µmol/L

**Q.** And the “Creatinine Mean percentage CFB” value [3]?
**A.** 2%

**Q.** What about the “Creatinine Mean CFB” value [4] of the same molecule?
**A.** 0 µmol/L

**Q.** And the “Creatinine Mean percentage CFB” value [4]?
**A.** 2%

**Q.** And the “Creatinine Mean CFB” value [5]?
**A.** 2 µmol/L

**Q.** What about the “Creatinine Mean percentage CFB” value [5] of the same molecule?
**A.** 3%

**Q.** What about the “Creatinine Mean CFB” value [6] of the same molecule?
**A.** 1 µmol/L

**Q.** What about the “Creatinine Mean percentage CFB” value [6] of the same molecule?
**A.** 3%

**Q.** And the “Creatinine Mean CFB” value [7]?
**A.** 0 µmol/L

**Q.** And the “Creatinine Mean percentage CFB” value [7]?
**A.** 0%

**Q.** And the “Creatinine Mean CFB” value [8]?
**A.** 3 µmol/L

**Q.** And the “Creatinine Mean percentage CFB” value [8]?
**A.** 5%

**Q.** And the “Creatinine Mean CFB” value [9]?
**A.** 4 µmol/L

**Q.** What about the “Creatinine Mean percentage CFB” value [9] of the same molecule?
**A.** 6%

**Q.** And the “Creatinine Mean CFB” value [10]?
**A.** 3 µmol/L

**Q.** And the “Creatinine Mean percentage CFB” value [10]?
**A.** 5%

**Q.** And the “Creatinine Mean CFB” value [11]?
**A.** 3 µmol/L

**Q.** And the “Creatinine Mean percentage CFB” value [11]?
**A.** 6%

**Q.** What about the “Creatinine Mean CFB” value [12] of the same molecule?
**A.** 4 µmol/L

**Q.** What about the “Creatinine Mean percentage CFB” value [12] of the same molecule?
**A.** 7%

**Q.** And the “Creatinine Mean CFB” value [13]?
**A.** 0 µmol/L

**Q.** And the “Creatinine Mean percentage CFB” value [13]?
**A.** 0%

**Q.** And the “Creatinine Mean CFB” value [14]?
**A.** 5 µmol/L

**Q.** What about the “Creatinine Mean percentage CFB” value [14] of the same molecule?
**A.** 8%

**Q.** And the “Creatinine Mean CFB” value [15]?
**A.** 4 µmol/L

**Q.** What about the “Creatinine Mean percentage CFB” value [15] of the same molecule?
**A.** 8%

**Q.** And the “Creatinine Mean CFB” value [16]?
**A.** 4 µmol/L

**Q.** What about the “Creatinine Mean percentage CFB” value [16] of the same molecule?
**A.** 8%

**Q.** And the “Creatinine Mean CFB” value [17]?
**A.** 7 µmol/L

**Q.** And the “Creatinine Mean percentage CFB” value [17]?
**A.** 12%

**Q.** And the “Creatinine Mean CFB” value [18]?
**A.** 6 µmol/L

**Q.** And the “Creatinine Mean percentage CFB” value [18]?
**A.** 12%

**Q.** And the “Creatinine Mean CFB” value [19]?
**A.** 0.0 µmol/L

**Q.** What about the “Creatinine Mean percentage CFB” value [19] of the same molecule?
**A.** 0.0%

**Q.** And the “Creatinine Mean CFB” value [20]?
**A.** 1.4 µmol/L

**Q.** And the “Creatinine Mean percentage CFB” value [20]?
**A.** 3.0%

**Q.** And the “Creatinine Mean CFB” value [21]?
**A.** 0.7 µmol/L

**Q.** What about the “Creatinine Mean percentage CFB” value [21] of the same molecule?
**A.** 1.6%

**Q.** And the “Creatinine Mean CFB” value [22]?
**A.** 0.6 µmol/L

**Q.** And the “Creatinine Mean percentage CFB” value [22]?
**A.** 2.1%

**Q.** What about the “Creatinine Mean CFB” value [23] of the same molecule?
**A.** 4.2 µmol/L

**Q.** And the “Creatinine Mean percentage CFB” value [23]?
**A.** 8.2%

**Q.** What about the “Creatinine Mean CFB” value [24] of the same molecule?
**A.** 3.6 µmol/L

**Q.** What about the “Creatinine Mean percentage CFB” value [24] of the same molecule?
**A.** 7.2%

**Q.** What about the “Creatinine Mean CFB” value [25] of the same molecule?
**A.** 4.6 µmol/L

**Q.** What about the “Creatinine Mean percentage CFB” value [25] of the same molecule?
**A.** 8.7%

— patent US20180200257A1, “METHODS FOR THE TREATMENT OF INFLAMMATORY DISORDERS” (Galapagos NV, priority 2015, published 2018)
